# Measured values from article PMC12009420, “Dynamically chiral phosphonic acid-type metallo-β-lactamase inhibitors” (Communications Chemistry, 2025).
# Experiments:
# 15N-labelled VIM-2 = biological target: T1, 15N-labelled VIM-2 (Escherichia coli, UniProt Q5U7L7); assay: 1H,15N-HSQC titration of VIM-2; assay type: binding; settings: 10 equivalents of compound, 600 MHz, pH 7.0, 25 °C
# T1 construct: made in house
# Protocol: The ^1H, ^15N-HSQC spectra for the titration experiments were recorded on a Bruker Avance Neo 600 MHz spectrometer equipped with a 5 mm TCI cryogenic probe at 25 °C. The U-[^15N]-labeled VIM-2 was prepared in a buffer of 20 mM KPO4, 0.1 mM ZnCl2, at pH 7.0, containing 85% H2O/15% D2O at a concentration of 0.25 mM. The U-[^15N]-labeled NDM-1 was used in a buffer of 20 mM HEPES, 0.1 mM ZnCl2, at pH 7.0, containing 85% H2O/15% D2O at a concentration of 0.25 mM. The ligands 5d, 5g, 5i, 5j (for VIM-2 titrations) and 5 f (for NDM-1 titration) were dissolved in the same buffer as the corresponding enzymes. Spectra were recorded using solvent suppression, 1024 points in f1, 16 transients, 512 increments in f2 and a relaxation delay of 0.2 s. The titrations were carried out with 0, 0.25, 0.50, 1.00, 1.50, 2.25, 3.00, 4.00, 5.00, 7.00, 10.0 equivalents of the inhibitors.
# Figure S47. Superimposition of the 1H,15N-HSQC spectrum (600 MHz, pH 7.0, 25 °C) of
# VIM-2 in the absence (blue) and in the presence (green) of 10 molar equivalent of compound
# 5j. Buffer: 20 mM KPO4, 0.1 mM ZnCl2, with 15% D2O.
# Chemical shift perturbation values (CSP, ΔδNH) were calculated as the weighted average of
# the chemical shift changes in f1 (ΔδN) and f2 (ΔδH) dimensions using the following equation 8:
# ∆δ = √∆δ 2 + ( N ); R = 6.5
# Figure S48. Linear regression of the chemical shift perturbations of compound 5g (IC50 =
# 12 μM) as a function of the chemical shift perturbations of compounds 5c (yellow circle), 5d
# (grey square), 5i (green triangle) and 5j (blue circle) for VIM-2. The data of the studied […]
# [1] = Long term stability in buffer with 2.5% DMSO (LC-MS); assay type: physicochemical; settings: 20 mM KPO4, 0.1 mM ZnCl2, pH 7.0 + 2.5% DMSO; LC-MS 254 nm
# From the text: Reagents, reactants, solvents and drying agents for synthesis, work-up and purification were purchased from commercial vendors (Sigma-Aldrich, VWR, Merck, Fluorochem, Thermo Fisher Scientific, Solveco), and if not stated otherwise they were used without further purification. Reactions and long term stability of the final compounds in buffer were monitored using LC-MS (Agilent 1260 Infinity II) equipped with an ESI-Q detector (Infinitylab LC-MSD) using Agilent InfinityLab Poroshell 120 C18 columns (2.7 μm, ϕ 2.1 mm L 50 mm or 2.7 μm, ϕ 4.6 mm L 50 mm). The intermediates were purified using VWR silica gel 60 (40–63 μm) with a Biotage Isolera One flash column chromatography instrument. The final products were purified with preparative RP-HPLC (VWR LaPrep P110) with single wavelength detection (254 nm), using a Kinetex C8 column (5 μm, 100 Å, ϕ 21.2 mm L 250 mm) and gradients of CH3CN/H2O + 0.1% formic acid as the mobile phase at a 10 mL/min flow rate. Analytical HPLC data were acquired on a VWR LaChrome ELITE system using an ACE3 C8 (3 μm, 300 Å, ϕ 3.0 mm L 100 mm) or a Kinetex C18 columns (5 μm, 100 Å, ϕ 3.0 mm L 150 mm). NMR spectra were recorded on a Varian Agilent MR400-DD2 400 MHz spectrometer equipped with a OneNMR probe, Bruker Avance Neo 500 MHz spectrometer equipped with a cryogenic TXO probe, or a Bruker Avance Neo 600 MHz spectrometer equipped with a TCI cryogenic probe. The chemical shifts are reported using the residual solvent signal as an indirect reference to TMS.
# 4. Long term stability of the final compounds in buffer with 2.5% DMSO
# The long term stability of the final compounds in buffer (20 mM KPO4, 0.1 mM ZnCl2, pH 7.0 + 2.5% DMSO) were monitored using LC-MS (Agilent 1260 Infinity II) equipped with an ESI-Q detector (Infinitylab LC-MSD) using Agilent InfinityLab Poroshell 120 C18 column (2.7 μm, ϕ 4.6 mm L 50 mm) at 254 nm with a 7 min long gradient method (5% to 95% CH3CN) of CH3CN/H2O + 0.1% formic acid as the mobile phase at a 1.0 mL/min flow rate. The samples were measured right after dissolving them in buffer, and after 1 month of keeping the same samples dissolved in the same buffer. The main peaks (> 95%) and impurities with > 1% are […]
# Figure S14. Compound 5a right after dissolving it in buffer.
# Figure S15. Compound 5a kept in buffer for 1 month. […]
smiles,measurement,setting,value
O=C(NC(c1ccccc1O)P(=O)(O)O)c1scc2c1CCCC2 (stereo not drawn) [5g],"Mean chemical shift perturbation, VIM-2",15N-labelled VIM-2,0.04 ppm
same,main peak Area% kept in buffer for 1 month,[1],98.05%
same,main peak Area% right after dissolving in buffer,[1],98.21%
